Test [1] addresses Trace amine-associated receptor 1 (Rattus norvegicus, UniProt Q923Y9). Description: (§1) Radioligand Binding Assay: HEK-293 cells stably expressing rat TAAR1 were maintained at 37 C and 5% CO2 in DMEM high glucose medium, containing fetal calf serum (10%, heat inactivated for 30 min at 56 C), penicillin/streptomycin (1%), and 375 ug/ml geneticin (Gibco). Cells were released from culture flasks using trypsin/ EDTA, harvested, washed twice with ice-cold PBS (without Ca2+ and Mg2+), pelleted at 1,000 rpm for 5 min at 4 C, frozen and stored at -80 C. Frozen pellets were suspended in 20 ml HEPES-NaOH (20 mM, pH 7.4) containing 10 mM EDTA and homogenized with a Polytron (PT 6000, Kinematica) at 14,000 rpm for 20 s. The homogenate was centrifuged at 48,000 x g for 30 min at 4 C. Subsequently, the supernatant was removed and discarded, and the pellet resuspended in 20 ml HEPES-NaOH (20 mM, pH 7.4) containing 0.1 mM EDTA using the Polytron (20 s at 14,000 rpm). This procedure was repeated and the final pellet resuspended in HEPES-NaOH containing 0.1 mM EDTA. It is filed as cell-based, HEK293.

Test [2] addresses Trace amine-associated receptor 1 (Mus musculus, UniProt Q923Y8). Described as §1, with “Assay: Membrane Preparation and Radioligand Binding.” for “Assay:”, “mouse TAA 1” for “rat TAAR1”, “C02” for “CO2”, “rpm).” for “rpm). This procedure was repeated and the final pellet resuspended in HEPES-NaOH containing 0.1 mM EDTA.”. Type of test: cell membranes, HEK293.

Trace amine-associated receptor 1 (Mus musculus, UniProt Q923Y8), sequence (Q923Y8 whole entry): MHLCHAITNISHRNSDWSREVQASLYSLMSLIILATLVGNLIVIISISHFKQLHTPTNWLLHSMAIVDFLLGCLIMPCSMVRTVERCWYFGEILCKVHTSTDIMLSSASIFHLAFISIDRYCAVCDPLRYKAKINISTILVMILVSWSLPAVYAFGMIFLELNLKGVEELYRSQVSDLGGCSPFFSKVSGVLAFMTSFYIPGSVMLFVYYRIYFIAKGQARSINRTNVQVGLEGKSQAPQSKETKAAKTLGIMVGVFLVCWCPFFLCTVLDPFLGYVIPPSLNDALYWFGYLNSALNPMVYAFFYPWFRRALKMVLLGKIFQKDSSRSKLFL
Trace amine-associated receptor 1 (Rattus norvegicus, UniProt Q923Y9), sequence (Q923Y9 whole entry): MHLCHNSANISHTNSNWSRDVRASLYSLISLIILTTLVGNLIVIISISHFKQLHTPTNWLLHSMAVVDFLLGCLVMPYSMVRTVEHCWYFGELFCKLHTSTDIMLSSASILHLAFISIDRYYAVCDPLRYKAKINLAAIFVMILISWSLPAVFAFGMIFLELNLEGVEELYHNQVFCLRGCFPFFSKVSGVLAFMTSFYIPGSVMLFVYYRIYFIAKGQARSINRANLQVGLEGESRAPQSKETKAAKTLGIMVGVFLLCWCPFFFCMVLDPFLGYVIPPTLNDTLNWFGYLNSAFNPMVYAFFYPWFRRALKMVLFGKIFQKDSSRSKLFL

Take `N#Cc1cccc(CNC(=O)Nc2ccc([C@H]3CNCCO3)cc2F)c1`: the figures for the Ki in test [1] and in test [2] were 67.9 nM and 3.1 nM, respectively.
As to `COc1ccc(C#N)cc1NC(=O)Nc1ccc([C@@H]2CNCCO2)cc1F`, the Ki in test [1] was found to be 5.9 nM; in test [2], 4.4 nM.
As for `CCOc1ccc(C#N)cc1NC(=O)Nc1ccc([C@H]2CNCCO2)cc1F`, the Ki in test [1] was determined as 1.9 nM; in test [2], 1.8 nM.
Take `CCOc1ccc(C#N)cc1NC(=O)Nc1ccc([C@@H]2CNCCO2)cc1F`: the values for the Ki in test [1] and in test [2] were 3.9 nM and 3.1 nM, respectively.
Taken in the same sequence, the figures for `N#Cc1ccnc(C(=O)Nc2ccc([C@@H]3CNCCO3)cc2F)c1` were 32.5 nM and 5 nM.
Taken in the same sequence, the figures for `N#Cc1cccc(C(=O)Nc2ccc([C@H]3CNCCO3)cc2F)n1` were 959 nM and 9.7 nM.
Turning to `O=C(Nc1ccc([C@H]2CNCCO2)c(F)c1)c1cnn(-c2ccc(OC(F)F)cc2)c1`, the Ki in test [1] was found to be 0.7 nM; in test [2], 0.6 nM.
Taken in the same sequence, the figures for `N#Cc1cccc(C(=O)Nc2ccc([C@@H]3CNCCO3)cc2Cl)n1` were 184 nM and 82.4 nM.
Turning to `N#Cc1cccc(C(=O)Nc2ccc([C@H]3CNCCO3)cc2Cl)n1`, the Ki in test [1] is 565 nM; in test [2], 27.6 nM.
Taken in the same sequence, the figures for `N#Cc1ccc(C(=O)Nc2ccc([C@H]3CNCCO3)cc2Cl)nc1` were 154 nM and 6.3 nM.
Taken in the same sequence, the figures for `N#Cc1ccc(C(=O)Nc2ccc([C@@H]3CNCCO3)cc2Cl)nc1` were 20.2 nM and 12 nM.
For `N#Cc1ccc(C(=O)Nc2ccc([C@H]3CNCCO3)cc2Cl)cn1`, in that order: 524 nM and 17 nM.
For `N#Cc1ccc(C(=O)Nc2ccc([C@@H]3CNCCO3)cc2Cl)cn1`, the Ki in test [1] amounted to 410 nM; in test [2], 25.9 nM.
For `N#Cc1cc(Cl)cc(C(=O)Nc2ccc([C@H]3CNCCO3)cc2F)n1`, in that order: 93.8 nM and 6.3 nM.
For `O=C(Nc1ccc([C@H]2CNCCO2)c(F)c1)c1cnn(-c2ccnc(C(F)(F)F)n2)c1`, in that order: 3.6 nM and 8 nM.
`O=C(Nc1ccc([C@H]2CNCCO2)c(F)c1)c1cnn(-c2cnc(C(F)(F)F)cn2)c1`: the Ki worked out at 4 nM in test [1] and 4.8 nM in test [2].
